Data reported in patent publication US8252807B2, “Methods of inhibiting the interaction between S100 and the receptor for advanced glycation end-products” (Board of Regents, The University of Texas System, priority 2007, dated 2012).

How the values were obtained:
BxPC-3 cells = test: BxPC-3 cell growth (MTS); type: cell-based; conditions: 48 hours; for BxPC-3 basal cell proliferation, mean: 0 μM mean=1.2
Method: BxPC-3 cells were plated at 1.0×10^3 cells/well and treated with 0 μM, 1 μM, 10 μM, and 100 μM of cromolyn, and cell proliferation was analyzed after 48 hours. Means and 95% confidence intervals of three independent experiments performed in triplicate are shown. *, P=0.002; †, P<0.001 versus control. Growth of Panc-1 and BxPC3 pancreatic adenocarcinoma cells was analyzed using MTS reagent (Promega, Madison, Wis.) according to the manufacturer's directions. Purified S100P (100 nM final concentration) with or without cromolyn (100 μM final concentration) was added to Panc-1 cells. Only cromolyn (0-100 μM) was added to BxPC-3 cells, which express endogenous S100P. For both cell models, 1.0×10^3 cells/well were plated in 96-well culture dishes. Cells were treated with S100P, PDGF, or cromolyn, or a combination, followed immediately by treatment with either S100P or PDGF. MTS (20 μL per well) was added to cells at various times, and the mixture was incubated for 1 hour at 37° C. Samples were then read at 490 nm (as O.D. units) on a uQuant-Microplate Spectrophotometer (Bio-Tek Services Inc., Richmond, Va.). The assay was performed three times in triplicate.

[1] = test system: NFκB promoter activity in Panc-1 cells; test: Luciferase assay for NFκB activity, Panc-1; type: cell-based
Method: FIGS. 3A, 3B, and 3C show the effect of cromolyn on S100P stimulated NFκB promoter activity in pancreatic cancer cells in vitro and in vivo. Panc-1 and BxPC-3 pancreatic cancer cell lines stably expressing an NFκB luciferase reporter were examined for the effects of S100P and cromolyn. […] Means and 95% confidence intervals are shown for three independent experiments performed in triplicate. *, P=0.022, †, P<0.001, and ‡, P<0.001 versus control; #, P=0.005 versus 100 nM S100P alone. […] Means and 95% confidence intervals are shown for three independent experiments performed in triplicate. *, P=0.003, †, P<0.001 versus control. […] After 1 week, tumor growth was assessed and NFκB activity was analyzed using an IVIS system (Xenogen Corp., Alameda, Calif.) after injecting mice with D-luciferin (150 mg per kg body weight) (0 time point). The mice were treated with cromolyn (5 mg per kg body weight by intraperitoneal injection), and NFκB luciferase activity was analyzed again at 24 and 48 hours. *, P=0.005 versus control. Means and 95% confidence intervals are shown for two independent experiments (n=4 mice per group). Two-tailed two-sample (unpaired for in vitro and paired for in vivo studies) Student's t-tests were used to determine P values.
To study pancreatic cancer cell NFκB activity, a lentivirus NFκB luciferase reporter gene construct was developed. The NFκB luciferase reporter gene was excised and isolated from the pNF-κB-Luc Vector (Clonetec, Mountain View, Calif.) and cloned into the lentiviral vector FG9 (Gift from Dr. Xiao-Feng Qin, Dept. of Immunology, M.D. Anderson Cancer Center replacing the CMV/LTR and UBiC promoters, to form Lenti-NFκB-Luc. Lentiviral NFκB vector were co-transfected with packaging constructs pRSVREV, pMDLg/pRRE, and the VSV-G expression plasmid pHCMVG, and lentivirus was produced in 293T cells by the calcium transfection method, as previously described in Qin, et al., Inhibiting HIV-1 infection in human T cells by lentiviral-mediated delivery of small interfering RNA against CCR5; Proc. Natl. Acad. Sci. U.S.A. 2003 Jan. 7; 100(1):183-8. […] Functional validation of NFκB reporter activity was conducted in vitro using TNF-α (20 ng/mL, Sigma, St. Louis, Mo.) as a positive control.
BxPC-3 and Panc-1 cells stably expressing a Lenti-NFkB-luc reporter construct were treated with S100P, cromolyn, or the combination for 5 hours. D-luciferin (150 μg/mL) was added to the cells, and luciferase activity was measured using an IVIS bioluminescence system (Xenogen Co. Alameda, Calif.). Each experiment was conducted three times in triplicate.

S100B with RAGE = S100B with RAGE (Homo sapiens, UniProt P04271); test: S100B binding with RAGE ELISA (sRAGE coated plate)
Sequence of S100B with RAGE (P04271 whole entry, species assumed): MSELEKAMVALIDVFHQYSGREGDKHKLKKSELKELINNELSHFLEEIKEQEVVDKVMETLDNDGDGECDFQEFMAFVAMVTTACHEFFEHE
Source text: After removing un-bound S100B by washing with detergent, bound S100B and RAGE complex was quantified by adding HRP labeled antibody against S100B.

SKOV3 ovarian cells [2] = test: SKOV3 ovarian cell proliferation; type: cell-based; conditions: 24, 48 and 72 hours
Method: SKOV3 ovarian cells were cultured for up to three days in the presence of different concentrations of cromolyn, and cell proliferation was analyzed at 24, 48, and 72 hours. *, P<0.05.

SKOV3 ovarian cells [3] = test: SKOV3 ovarian cell viability with taxol; type: cell-based; conditions: taxol 5 μM, cromolyn 10 μM, 48 hours
Method: SKOV3 ovarian cells were plated and treated with taxol (5 μM) either in the presence or absence of cromolyn (10 μM) for 48 hours. Cell viability was analyzed after 48 hours. *, P<0.05.

SW480 colon cells = test: SW480 colon cell proliferation; type: cell-based; conditions: cromolyn 100 μM, up to three days
Method: SW480 colon cells were cultured for up to three days in the presence of cromolyn (100 μM), and cell proliferation was analyzed. *, P<0.05.

For `O=C(O)c1cc(=O)c2c(OCC(O)COc3cccc4oc(C(=O)O)cc(=O)c34)cccc2o1` [cromolyn, disodium 1,3-bis[(2′-carboxylatochromon-5′-yl)oxy]-2-hydroxypropane], the “BxPC-3 cell proliferation, difference versus 0 μM” value (BxPC-3 cells; cromolyn 10 μM) was 0.5 MTS units, the “BxPC-3 basal cell proliferation, mean” value (BxPC-3 cells; cromolyn 10 μM) was 0.7 MTS units and the “BxPC-3 cell proliferation, difference versus 0 μM” value (BxPC-3 cells; cromolyn 100 μM) was 0.6 MTS units. The “BxPC-3 basal cell proliferation, mean” value (BxPC-3 cells; cromolyn 100 μM) was 0.6 MTS units, the “NFκB promoter activity in Panc-1 cells, mean” value ([1]; S100P 100 nM + cromolyn 100 μM, 5 hours, S100P alone mean=14460) was 7360 photons/sec and the “NFκB promoter activity in Panc-1 cells, difference S100P alone versus combination with cromolyn” value ([1]; S100P 100 nM, cromolyn 100 μM) was 7100 photons/sec. The “basal NFκB activity in Panc-1 cells” value ([1]; cromolyn 100 μM, no S100P, 5 hours) was “no effect”, the “interaction of S100B with RAGE” value (S100B with RAGE) was “inhibit the interaction of S100B with RAGE” and the “growth of SKOV3 cells” value (SKOV3 ovarian cells [2]) was “reduced the growth”. For the same molecule, the “cell killing effect of taxol on ovarian cancer cells” value (SKOV3 ovarian cells [3]) was “increased the cell killing effect of taxol” and the “growth of SW480 cells” value (SW480 colon cells) was “reduced growth”.
